This note sets out measurements from a melting point compilation (Tetko et al.; mined from patent text by program, amines drawn as free bases though some values may be those of a salt).

The melting point is the temperature, or range, at which the solid turns liquid.

Some results are limits rather than exact numbers.

As for `Cc1ccc(C)c(NC(=O)CCl)c1C`, the melting point fell in the range of 145 to 146 °C.
The same measure for `CC(C)(C)NC(=S)Nc1cc(F)cc(Cl)c1`: 135 to 137 °C.
Consider `Fc1ccc(/C=C/C2=CCN(Cc3c[nH]c4ncccc34)CC2)cc1F`, for which the melting point lay in the range of 208 to 210 °C.
With `CCOC(=O)c1cccc(OCc2ccc3ccccc3c2)c1` the figure was 45 to 46.5 °C; with `CC(CCCc1ccccc1)Oc1cc(O)c2c(c1)OC(C)(C)CC2=O` (centres undefined), 83 to 84 °C.
The same measure for `O=C(N[C@@H](Cc1ccccc1)C(=O)Nc1nncs1)OCc1ccccc1`: 78 to 83 °C; for `CC(=O)NC[C@H]1CN(c2ccc(N3CCC(O)(CO)CC3)c(F)c2)C(=O)O1`: 98 to 100 °C.
The same measure for `O=c1c2cc(O)c(O)cc2c2cc(O)c(O)cc2n1Cc1ccc(Cl)c(Cl)c1`: 318 °C; for `COc1cc(CC(C)(C)NC(=O)c2ccc(Cl)nc2)cc2c1OC(C)(C)C2`: 118 to 119 °C.
For the molecule `COc1ccc(C=CC(=O)c2cc(Oc3ccccc3)c(NS(C)(=O)=O)cc2O)cc1OC`, the melting point lay in the range of 210 to 212 °C.
For `O=C(O)[C@H](CCc1ccc(F)cc1F)NC(=O)C(F)(F)F`, the melting point lay within 62 to 83.5 °C.
Molecule `N#CCCNC(=O)c1n[nH]cc1NC(=O)c1cccs1` yielded a melting point of 226 to 227 °C.
The molecule `O=C(/C=C/c1ccc(S(=O)(=O)N2CCN(c3cccc(C(F)(F)F)c3)CC2)cc1)NO` came in with a melting point of 178 to 179 °C.
With `OCC1OC(n2c(Cl)nc3cc(Cl)c(Cl)cc32)C(O)C1F` (centres undefined) the figure was 238 °C; with `CC(C)(C)c1cc(C(=O)c2ccc(C(=O)O)s2)cc(C(C)(C)C)c1O`, 228 to 230 °C.
`O=c1n(CCC#Cc2ccccn2)nc2ccccn12` showed a melting point of 95.5 to 96 °C.
With `Cc1[nH]c(C(=O)NCc2ccc3c(c2)OCO3)c(C)c1-c1nc2ccc(C(=O)c3ccccc3)cc2[nH]1` the figure was 165 to 167 °C; with `Cn1c2ccc(Cl)cc2c2c(CC(=O)N3CCCC3)nn(-c3ccccc3)c(=O)c21`, 261 to 262 °C; with `O[C@@H](COc1cccc(-c2noc3ccsc23)c1)CN1CCN(c2ccccc2Cl)CC1`, 83 to 86 °C.
With `O=C(NCc1ccccc1)c1ccccc1-c1ccccc1CNS(=O)(=O)c1cccc(F)c1` the figure was 147 °C; with `CNC(=O)C(CCCl)(c1ccccc1)c1ccccc1`, 150 to 152 °C; with `CC(C)C[C@@H]1OC(O)[C@H](Cc2ccccc2)NC1=O` (some centres undefined), 84 to 84.5 °C.
`CS(=O)(=O)c1ccc(Cl)c(C(=O)Nc2ccc(-n3nc(C4CC4)cc3C3CC3)cc2)c1` yielded a melting point of 60 to 65 °C.
The same measure for `COC(=O)c1ccc(OCCCCCCCc2cc(C)no2)cc1`: 60 °C.
The same measure for `Cc1cc(SC#N)c(C(C)(C)C)cc1O`: 99 to 102 °C.
The same measure for `CCCCC1(c2ccc(-c3ccccc3)cc2)CC(O)=C(SCCc2ccccc2)C(=O)O1` (centres undefined): 100 to 104 °C.
In the case of `CCCCc1c(Cc2ccc(-c3ccccc3)c(-c3nnn[nH]3)c2)c(COC)nn1CC(F)(F)F`, the melting point came out at 48 °C.
With `COc1cc(F)ccc1-c1ccc(S(=O)(=O)N2c3ccccc3CC2C(=O)NCCOc2ccc(C(=O)O)c(F)c2)cc1` (centres undefined) the figure was 88 to 95 °C; with `Clc1cc(Br)c2ccccc2c1Cl`, 84 to 86 °C.
Consider `O=C(O)CCc1cn(Cc2cccc(C(=O)Nc3ccccn3)c2)nc1-c1ccccc1`, for which the melting point lay in the range of 187 to 188 °C.
Molecule `N#Cc1ccccc1-c1ccc(OCC(=O)C2CC2)cc1` yielded a melting point of 82 to 84 °C.
`CC(=O)c1ccc(OCCCN2CCC(c3noc4cc(F)ccc34)CC2)c(Br)c1` had a melting point of 126 to 128 °C.
With `Nc1nc2c(s1)CCN(CC=Cc1ccccc1)CC2`, the melting point fell in the range of 120 to 124 °C.
The same measure for `c1ccc(-n2nnnc2OCC2CO2)cc1` (centres undefined): 77 to 81 °C.
With `CN(C)c1ccc(-c2cnc(N)c([N+](=O)[O-])c2)cc1` the figure was 212 °C; with `O=C(Cc1cccnc1)[N+]1([O-])CCC(=C2c3ccc(Cl)cc3CCc3cccnc32)CC1` (centres undefined), 120 to 121 °C.
Regarding `O=c1[nH]nc(-c2cccc([N+](=O)[O-])c2)c2ncccc12`, the melting point was 302 °C.
With `O=c1n(Cc2ccc([N+](=O)[O-])cc2)c2ccccc2n1Cc1ccc(C(F)(F)F)cc1` the figure was 134 to 137 °C; with `O=C(Nc1cccc2c(NN3C(=O)CCC3=O)ccnc12)c1c(Cl)cccc1Cl`, 170 to 173 °C.
With `O=Cc1ccc2cccc3c4cccc5cccc(c1c23)c54`, the melting point lay in the range of 232 to 234 °C.
With `COC(=O)c1cc(C(=O)NCC(C)(C)C)ccc1-c1cc(C(=O)OC(C)(C)C)cc(F)c1C` the figure was 68 to 74 °C; with `Cc1nc(-n2cnn(CCOc3ccc(F)cc3)c2=O)sc1C(=O)NCc1cccnc1`, 154 to 155 °C.
In the case of `CC(=O)c1cc(C(C)=O)cc(N(C(C)=O)C(=O)Nc2ccccc2)c1`, the melting point is 223 to 224 °C.
As to `CCOC(=O)C(=NOCC(C)C)c1csc(N)n1`, the melting point fell in the range of 122 to 124 °C.
For `CN(CCCCOCC(=O)O)c1cnc(-c2ccc(F)cc2)c(-c2ccc(F)cc2)n1`, the melting point lay within 116 to 118 °C.
The same measure for `O=C1CC(C(=O)OCc2ccccc2)C(=O)C(Cc2ccccc2)N1` (centres undefined): 119 to 120 °C; for `CCCCC(Cc1ccc(OCCNC(=O)c2ccc(-c3ccc(CN(C)C)cc3)cc2)cc1)C(=O)O` (centres undefined): 125 to 127 °C.
With `NC1=NCC(COc2ccccc2[N+](=O)[O-])O1` (centres undefined) the figure was 166 °C.
Consider `Cc1nc2ccccc2n1Cc1ccc(-n2c(C)nc3cnccc32)cc1`, for which the melting point is 184 to 185 °C.
The same measure for `Cc1cc(-c2cc(C(F)(F)F)n3ncc(C(=O)Nc4cccc(S(N)(=O)=O)c4)c3n2)ccc1Cl`: 275 °C; for `CC(C)NC1CCn2c(CCc3ccccc3)nc3cccc1c32` (centres undefined): 95.5 to 97.7 °C.
The same measure for `CNC(=O)COc1nc(N)nc(-c2ccccc2)c1-c1ccc(=O)n(C(C)C)n1`: 204 to 206 °C; for `Cn1nc(Cl)cc(Nc2ccn(C3CN(C(=O)OC(C)(C)C)C3)n2)c1=O`: 154 to 156 °C.
With `COC1CCC(C2=C(O)C(=O)c3ccccc3C2=O)CC1` (centres undefined) the figure was 152 to 155 °C; with `Cc1ccc(-c2nc3ccc(O)cc3n2Cc2ccccc2C(F)(F)F)cc1C`, 178 °C.
`CCCC(C)(C)C(=O)Oc1ccc(C(=O)CNC(C)(C)C)cc1O`: the melting point lay within 128 to 130 °C.
With `CP(C)(=O)COC(=O)c1ccc(-n2c(-c3ccccc3)cc3c2-c2ccccc2CC3)cc1` the figure was 171 to 173 °C.
In turn, `Oc1cccc(-c2ocnc2-c2onc(-c3ccccc3)c2-c2ccccc2)c1` gave a melting point of 199 to 200 °C.
With `N#Cc1ccc(C(=C2CCCC2)c2nc[nH]n2)cc1` the figure was 72 °C; with `Cc1ccc(-c2nccc3c(Cl)cccc23)cc1`, 88.6 to 89.1 °C.
For `COC(=O)c1c(SC)nn(C2CCCC2)c1N`, the melting point was in the range of 88 to 89 °C.
The molecule `CC(C)CCOc1cccc2oc(C(=O)O)cc(=O)c12` came in with a melting point of 179 to 180 °C.
With `COC(=O)C(C)(C)Oc1cc(C)c(C)c(Br)c1C` the figure was 66 to 68 °C.
With `CCCc1c(C(OC)OC)cc([N+](=O)[O-])c(OC)c1OC` the figure was 52.1 to 54 °C.
The same measure for `O=C(Nc1cc(C(F)(F)F)ccc1N1CCCC1)c1ccncc1`: 134 to 135 °C; for `O=C1Nc2c(F)cccc2C12COc1cc3c(cc12)CCO3` (centres undefined): > 250 °C.
For the molecule `COc1nc2cc(C)c(C)c(N)c2nc1OC`, the melting point lay within 166 to 167 °C.
In the case of `CCCCc1noc(-c2ccc(C(=O)NCCC(C)(C)C)cc2)n1`, the melting point lay in the range of 95 to 97 °C.
On to `O=C(O)c1ccc(OC23CC4CC(CC(C4)C2)C3)cc1`, for which the melting point fell in the range of 223 to 226 °C.
Regarding `CCOC(=O)c1cn(-c2cc(C)on2)cn1`, the melting point is 142 to 143 °C.
With `CCOC(=O)C1C=NC(C)=C(c2ccccc2)C1=O` (centres undefined) the figure was 178 to 180 °C; with `CCCCCCCc1ccc(C(=O)CCCC(=O)O)cc1`, 101 °C.
With `CCCCCCCCC#CCCCCCCCCCCCC(=O)O` the figure was 58 °C; with `CCn1c(N(C)C)nc2cc(C(F)(F)F)c(Cl)c([N+](=O)[O-])c21`, 121 to 122 °C; with `CCCCc1nc(Cc2ccc(-c3ccccc3C(=O)OC)cc2)c2ccccc2n1`, 76 °C.
In turn, `CC(C)(O)C#Cc1cccc(Nc2nccc(-c3sc(N)nc3-c3ccccc3)n2)c1` gave a melting point of 262 to 263 °C.
The same measure for `CCCCCCCCCCCCCCCCCCOc1cc(OCCCCC(=O)OC)cc(N(CC(=O)O)CC(=O)O)c1`: 91 to 94 °C.
In the case of `N#Cc1nn(-c2c(Cl)cc(C(F)(F)F)cc2Cl)c(N)c1-c1ccccc1Cl`, the melting point is 192 to 193 °C.
The same measure for `CSc1ccc(C)cc1C(N)=S`: 160 °C; for `COCC(=O)Nc1ccc2c(c1)CCC2`: 104 to 105 °C; for `COc1cccc(CC[C@H](O)CO[Si](C)(C)C(C)(C)C)c1O`: 44 to 46 °C.
The same measure for `CSc1ccc(-n2c(-c3ccccn3)nc(SC)c(C#N)c2=O)cc1`: 158 to 161 °C; for `c1ccc(CN2CCC(n3cnnc3-c3ccccc3)CC2)cc1`: 111 to 114 °C.
The same measure for `COc1cc(C)nc(NC(=O)NS(=O)(=O)c2cccc3c2OCCO3)n1`: 203 to 205 °C; for `COc1ccc(/C(=N\O)c2cccc(NS(=O)(=O)N(C)C)c2)cc1`: 160 to 161 °C; for `COCCOCONC(=O)c1nc(-c2ccc(Cl)c(OC)c2F)cc(N)c1Cl`: 126 to 128 °C.
In the case of `CS(=O)(=O)c1ccc(-c2c(-c3ccc(Cl)cc3)[nH]c3ccc(Cl)cc23)cc1`, the melting point is 269 to 271 °C.
`CCOC(=O)/C=C/c1ccc(OCCC2OCCO2)cc1Oc1ncc(C(F)(F)F)cc1Cl` came in with a melting point of 102 to 103 °C.
`CN(C(=O)c1n[nH]c2c(=O)[nH]c3cc(Cl)ccc3c(=O)c12)c1ccccc1` gave a melting point of 308 °C.
